Measurements reported in publication PMC5844868, “Increased intracellular activity of MP1102 and NZ2114 against Staphylococcus aureus in vitro and in vivo” (Scientific Reports, 2018).

Legend:
[1] = test system: IL-10; assay: Cytokine ELISA in S. aureus-infected RAW 264.7 cells; type: cell-based, mouse; conditions: 25 μg/ml, 24 h after treatment
Method: To investigate the effects of MP1102 and NZ2114 on cytokine levels in cells infected with S. aureus, RAW264.7 cells (2.5 × 10^5 cells/ml) seeded into 12-well plates were incubated with MRSA ATCC43300 (MOI = 100:1) for 30 min followed by treatment with 50 μg/ml lysostaphin for 1 h to remove non-phagocytosed bacteria. The cells were then treated with 25 μg/ml MP1102, NZ2114 and vancomycin for 12 h and 24 h. Cell-free culture supernatants were collected and the concentrations of cytokines (TNF-α, IL-1β and IL-10) were determined by Jiaxuan Biotech. Co. Ltd. (Beijing, China) using an ELISA kit[58],[59].

[2] = test system: high virulent S. aureus CVCC546; assay: Mouse peritonitis model; type: in vivo; conditions: 20 mg/kg, 24 h
Method: The mice were infected by peritoneal injection with different S. aureus strains, including MSSA ATCC25923 (5 × 10^8 CFU), MRSA ATCC43300 (5 × 10^8 CFU) and high virulent CVCC546 (5 × 10^7 CFU), and treated with a single dose of drugs (5 mg/kg for ATCC25923, 20, 30 and 40 mg/kg for ATCC43300 and CVCC546) at 10 min after infection. Twenty-four hours after treatment, the mice were killed and peritoneal fluids were obtained by washing with 5 ml ice-cold PBS. The total number of bacteria in the fluids was determined before any further procedures and then divided into two equal fractions of 1.5 ml each for the following purposes: i) for extracellular bacteria quantification, one fraction was centrifuged for 10 min at 4 °C (300 g) and the supernatant CFU count was quantified and ii) for intracellular bacteria quantification, the other fraction was centrifuged for 5 min at 4 °C (1,000 rpm). The cells were collected and treated with 100 μg/ml gentamicin (MSSA ATCC25923) or 50 μg/ml lysostaphin (MRSA ATCC43300 and high virulent CVCC546) for 1 h at 37 °C to kill extracellular bacteria. The cells were washed twice with ice-cold PBS to remove any anti-extracellular bacterial drug. Subsequently, the cells were lysed and counted as described above for the in vitro experiment method[14],[54].

CN[C@H](CC(C)C)C(=O)N[C@H]1C(=O)N[C@@H](CC(N)=O)C(=O)N[C@H]2C(=O)N[C@H]3C(=O)N[C@H](C(=O)N[C@H](C(=O)O)c4cc(O)cc(O)c4-c4cc3ccc4O)[C@H](O)c3ccc(c(Cl)c3)Oc3cc2cc(c3O[C@@H]2O[C@H](CO)[C@@H](O)[C@H](O)[C@H]2O[C@H]2C[C@](C)(N)[C@H](O)[C@H](C)O2)Oc2ccc(cc2Cl)[C@H]1O [Vancomycin]
IL-10 levels decreased by [1]: 12.0 pg/mL
log reduction, extracellular [2]: 4.9 log
log reduction, intracellular [2]: 3.7 log
log reduction, total [2]: 3.9 log
